pIC50: −log10 of the molar value. Several values for one entry are separate records, joined by “and”; a condition that tells them apart may be missing. Equal entries are not always repeated. Where two headings read alike, the source gives them in different places.

The source of these data is patent publication US9511134B2, “Inducing immune responses to influenza virus using polypeptide and nucleic acid compositions” (priority 2006, dated 2016).

Assay [1] deals with T1, DRB1*0101 (Homo sapiens, UniProt P01903+P01911, A100R/D57E/F55L/F60I/F76Y/I96L/L162R/M171V/P40L/Q125E/R42F/V115G/Y59C).
T1 construct: made in house; host or cells: EBV-transformed homozygous human B cell lines, transfected fibroblasts or single-allele 721.221 transfectants
The experiment in a line: biochemical. Type of assay: binding.

Assay [2] addresses DRB1*0802 (Homo sapiens, UniProt P01903+P01911, A100R/A103L/A169T/F76Y/H45Y/I96F/K41T/L162R/M171V/P40S/Q125H/Q178H/Q39Y/Q99D/R218S/R42G/S66Y/V115G/W38E). The experiment in a line: biochemical. Type of assay: binding.
Assay [3] deals with DRB1*1101 (Homo sapiens, UniProt P01903+P01911, A100R/A169T/A87E/I96F/K41T/L162R/M171V/P40S/Q125H/Q178H/Q39Y/Q99D/R42S/S66Y/T262R/V115G/W38E). The experiment in a line: biochemical. It counts as binding. The note with it: read-out: IC50 nM to purified HLA DRB1*1101.
The target of assay [4] is DRB1*1302 (Homo sapiens, UniProt P01903+P01911, A100E/A169T/K41T/L162R/M171V/P40S/Q125H/Q178H/Q39Y/Q99D/R42S/S66N/T262R/V115G/W38E/Y61H). Briefly: biochemical. The following applies: read-out: IC50 nM to purified HLA DRB1*1302. Type of assay: binding.
Assay [5] deals with T2, DRB4*0101 (Homo sapiens, UniProt P01903+P13762, G164S).
T2 construct: made in house; host or cells: EBV-transformed homozygous human B cell lines, transfected fibroblasts or single-allele 721.221 transfectants
The experiment in a line: biochemical. It counts as binding. The following applies: IC50 nM to purified HLA DRB4*0101.

The target of assay [6] is T3, DRB5*0101 (Homo sapiens, UniProt P01903+Q30154).
T3 construct: made in house; host or cells: EBV-transformed homozygous human B cell lines, transfected fibroblasts or single-allele 721.221 transfectants
The experiment in a line: biochemical. It counts as binding.

In assay [7] the test system is CD4+ PBMC. It counts as cell-based, human. The following applies: IFNγ ELISPOT, PBMC rested five days, CD8-depleted.
Assay [8] has as its target DRB1*0404 (Homo sapiens, UniProt P01903+P01911, A100R/A169T/F76Y/I96L/K127E/L162R/M171V/N62H/P40V/Q125Y/R42H/S133A/S149N/S66Y/V209L/W38E). Briefly: biochemical. It counts as binding.
Assay [9] deals with T4, DRB1*1501 (Homo sapiens, UniProt P01903+P01911).
T4 construct: made in house; host or cells: EBV-transformed homozygous human B cell lines, transfected fibroblasts or single-allele 721.221 transfectants
Briefly: biochemical. It counts as binding. The following applies: read-out: IC50 nM to purified HLA DRB1*1501.

Assay [10] concerns the target DRB1*0901 (Homo sapiens, UniProt P01903+P01911, A100R/A103E/D57H/D86V/F55Y/F60I/F76Y/I96F/K127E/L162R/M171V/P40D/Q125H/Q99R/R33Q/R42F/S133A/S66N/T210M/V115G/W38K/Y107V/Y59G/Y89S). The experiment in a line: biochemical. It counts as binding. The note with it: read-out: IC50 nM to purified HLA DRB1*0901.
Assay [11] has as its target T5, DRB1*0401 (Homo sapiens, UniProt P01903+P01911, A100K/A169T/F76Y/I96L/K127E/L162R/M171V/N62H/P40V/Q125Y/R42H/S133A/S149N/S66Y/V115G/V209L/W38E).
T5 construct: made in house; host or cells: EBV-transformed homozygous human B cell lines, transfected fibroblasts or single-allele 721.221 transfectants
Briefly: biochemical. It counts as binding. The following applies: read-out: IC50 nM to purified HLA DRB1*0401.

Assay [12] has as its target DRB1*0701 (Homo sapiens, UniProt P01903+P01911, A100R/A102G/A103Q/D57E/D86V/E43K/F76Y/K127E/L162R/M171V/P40G/Q125H/Q99D/R33Q/R42Y/R54Q/S133A/S66F/T210M/V115G/Y107V/Y59L/Y89S). The experiment in a line: biochemical. It counts as binding.
The target of assay [13] is T6, DRB1*0301 (Homo sapiens, UniProt P01903+P01911, A100K/A102G/A103R/A169T/F55Y/I96L/K41T/L162R/M171V/P40S/Q125H/Q178H/Q39Y/R42S/S66N/T106N/T262R/W38E/Y61H).
T6 construct: made in house; host or cells: EBV-transformed homozygous human B cell lines, transfected fibroblasts or single-allele 721.221 transfectants
Briefly: biochemical. Type of assay: binding.

Assay [14] has as its target DRB1*0405 (Homo sapiens, UniProt P01903+P01911, A100R/A169T/D86S/F76Y/I96L/K127E/L162R/M171V/N62H/P40V/Q125Y/R42H/S133A/S149N/S66Y/V115G/V209L/W38E). Briefly: biochemical. It counts as binding. The note with it: read-out: IC50 nM to purified HLA DRB1*0405.
[15] abbreviates: IC50 nM to purified HLA DRB1*0101.
Setting [16] is: IC50 nM to purified HLA DRB1*0404.

Sequence of DRB1*1302 (P01903 26-254 limits assumed, other chains not shown): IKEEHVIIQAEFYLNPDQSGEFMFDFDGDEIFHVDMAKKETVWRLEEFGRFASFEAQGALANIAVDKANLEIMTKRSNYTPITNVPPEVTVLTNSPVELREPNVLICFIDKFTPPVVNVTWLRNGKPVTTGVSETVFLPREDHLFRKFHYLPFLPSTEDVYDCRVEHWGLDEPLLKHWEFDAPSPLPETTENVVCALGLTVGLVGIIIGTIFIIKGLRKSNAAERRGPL
Sequence of DRB1*1101 (P01903 26-254 limits assumed, other chains not shown): as above
T6 sequence (P01903 26-254, other chains not shown): as the sequence (P01903 26-254 limits assumed, other chains not shown) above

On to `CC[C@H](C)[C@H](N)C(=O)NCC(=O)N[C@@H](CCCNC(=N)N)C(=O)N[C@@H](Cc1ccccc1)C(=O)N[C@@H](Cc1ccc(O)cc1)C(=O)N[C@H](C(=O)N[C@@H](CCC(N)=O)C(=O)N[C@@H](CCSC)C(=O)N[C@@H](CS)C(=O)N[C@H](C(=O)N[C@@H](CCC(=O)O)C(=O)N[C@@H](CC(C)C)C(=O)N[C@@H](CCCCN)C(=O)N[C@@H](CC(C)C)C(=O)N[C@@H](CO)C(=O)O)[C@@H](C)O)[C@@H](C)CC` [Flu.NP.39], for which the 50% inhibitory concentration (IC50) in [1] (setting [15]) was 64 nM and 43 nM; in assay [1] (IC50 nM to purified HLA DRB1*0101, Table 4), 64 nM; in [3], 880 nM; in assay [4] it was 640 nM; in assay [5] it was 990 nM. Also, the pIC50 in assay [2] was 6.89; in assay [6] it was 7.11. The “Human influenza epitope-specific immune response, donor 3501” value in assay [7] is listed as “Positive (Donors were considered positive for a peptide if the number of spots was over 3 times background as determined by responses to irrelevant peptides (non influenza))”.
For the compound `CC[C@H](C)[C@H](NC(=O)[C@H](CCC(N)=O)NC(=O)[C@H](CCC(=O)O)NC(=O)[C@@H](N)Cc1ccccc1)C(=O)N[C@H](C(=O)N[C@@H](Cc1ccccc1)C(=O)N[C@@H](CCSC)C(=O)N[C@@H](CCC(N)=O)C(=O)N[C@@H](C)C(=O)N[C@@H](CC(C)C)C(=O)N[C@@H](CCC(N)=O)C(=O)N[C@@H](CC(C)C)C(=O)N[C@@H](CC(C)C)C(=O)N[C@@H](CC(C)C)C(=O)N[C@@H](CCC(=O)O)C(=O)O)[C@@H](C)O` [Flu.NS2.170], the IC50 in assay [1] (read-out: IC50 nM to purified HLA DRB1*0101) turned out to be 5.3 nM; in [1] (read-out: IC50 nM to purified HLA DRB1*0101, Table 4), 5.3 nM; in assay [8] (read-out: IC50 nM to purified HLA DRB1*0404), 160 nM; in assay [2] (read-out: IC50 nM to purified HLA DRB1*0802), 2700 nM; in assay [4], 1080 nM; in [9] (Table 4), 7 nM. The IC50 in assay [9] is 7 nM and 9.7 nM; in assay [10], 47 nM.
For `CC[C@H](C)[C@H](NC(=O)[C@@H](NC(=O)[C@H](CCCNC(=N)N)NC(=O)[C@H](CCC(N)=O)NC(=O)[C@@H](NC(=O)[C@@H](NC(=O)[C@H](CCSC)NC(=O)[C@H](CCCCN)NC(=O)[C@H](CCCCN)NC(=O)[C@@H](N)[C@@H](C)O)C(C)C)[C@@H](C)O)[C@@H](C)O)C(=O)NCC(=O)N[C@@H](CCCCN)C(=O)N[C@@H](CCCCN)C(=O)N[C@@H](CCCCN)C(=O)N[C@@H](CCC(N)=O)C(=O)O` [Flu.PB1.199], the IC50 in assay [11] is 71 nM; in assay [8] (setting [16]), 62 nM; in [3] it was 449 nM; in assay [4] it was 6120 nM; in assay [9], 9710 nM; in assay [5], 57 nM. For the same compound, the pIC50 in [12] was 4.85; in [2], 7.26; in assay [6], 8.39.
For `CSCC[C@H](NC(=O)[C@H](CO)NC(=O)[C@H](CCCCN)NC(=O)[C@H](C)N)C(=O)N[C@@H](CCC(=O)O)C(=O)N[C@@H](Cc1ccc(O)cc1)C(=O)N[C@@H](CC(=O)O)C(=O)N[C@@H](C)C(=O)N[C@H](C(=O)N[C@@H](C)C(=O)N[C@H](C(=O)N[C@H](C(=O)N[C@@H](Cc1c[nH]cn1)C(=O)N[C@@H](CO)C(=O)N[C@@H](Cc1c[nH]c2ccccc12)C(=O)O)[C@@H](C)O)[C@@H](C)O)C(C)C` [Flu.PB1.655], the IC50 in assay [1] (setting [15]) is 202 nM; in assay [11], 53 nM; in [8] (setting [16]), 646 nM; in assay [14], 626 nM; in assay [3] it was 6620 nM; in assay [4], 2180 nM. Further, the IC50 in assay [9] was found to be 1990 nM; in assay [5] it was 6340 nM. Also, the pIC50 in assay [13] is 6.04; in assay [12] it was 6.53; in assay [6], 5.45.
As for `CC[C@H](C)[C@H](NC(=O)[C@H](CC(=O)O)NC(=O)[C@H](CCCCN)NC(=O)[C@H](CC(=O)O)NC(=O)[C@H](CCSC)NC(=O)[C@@H](NC(=O)[C@H](C)NC(=O)[C@H](CCC(N)=O)NC(=O)[C@H](CC(=O)O)NC(=O)[C@H](CCSC)NC(=O)[C@H](CCCNC(=N)N)NC(=O)[C@@H](NC(=O)[C@H](CS)NC(=O)[C@H](CC(C)C)NC(=O)[C@@H](N)CO)[C@@H](C)CC)[C@@H](C)CC)C(=O)O` [Flu.NS1.117], the negative-log IC50 (pIC50) in assay [13] was 7.24. In addition, the half-inhibitory concentration (IC50) was 82 nM in assay [14], over 10000 nM in assay [3], 53 nM in [4] and 6900 nM in [10].
On to `CC[C@H](C)[C@H](NC(=O)[C@H](CC(C)C)NC(=O)[C@@H](NC(=O)[C@@H](N)CC(N)=O)C(C)C)C(=O)NCC(=O)N[C@@H](CCC(N)=O)C(=O)NCC(=O)N[C@@H](CC(=O)O)C(=O)N[C@H](C(=O)N[C@H](C(=O)N[C@@H](CC(C)C)C(=O)N[C@H](C(=O)N[C@@H](CCSC)C(=O)N[C@@H](CCCCN)C(=O)N[C@@H](CCCNC(=N)N)C(=O)O)C(C)C)C(C)C)C(C)C` [Flu.PB2.726], for which the values for the pIC50 in [2] and in assay [6] were 5.96 and 5.38, respectively.
For `CC[C@H](C)[C@H](NC(=O)[C@H](CC(C)C)NC(=O)[C@H](Cc1ccccc1)NC(=O)CNC(=O)[C@H](CCCNC(=N)N)NC(=O)[C@H](CC(C)C)NC(=O)[C@@H](NC(=O)[C@H](C)NC(=O)[C@H](CO)NC(=O)[C@@H](N)CCC(=O)O)C(C)C)C(=O)N[C@@H](CC(C)C)C(=O)NCC(=O)N[C@@H](CCCCN)C(=O)N[C@@H](CCC(=O)O)C(=O)N[C@@H](CC(=O)O)C(=O)O` [Flu.PB2.690], the IC50 amounted to 8.4 nM in assay [1] (setting [15]); 110 nM in assay [8] (setting [16]); 7100 nM in [14]; 39 nM in assay [9]; 1280 nM in assay [5]. Moreover, the negative logarithm of the IC50 (pIC50) in assay [12] is 5.61; in assay [2], 6.10; in [6], 6.52.
With `CSCC[C@H](NC(=O)[C@@H](NC(=O)[C@H](CCCNC(=N)N)NC(=O)[C@@H](N)CC(=O)O)C(C)C)C(=O)N[C@H](C(=O)N[C@@H](CO)C(=O)N1CCC[C@H]1C(=O)N[C@@H](CC(C)C)C(=O)N[C@@H](C)C(=O)N[C@H](C(=O)N[C@H](C(=O)N[C@@H](Cc1c[nH]c2ccccc12)C(=O)N[C@@H](Cc1c[nH]c2ccccc12)C(=O)N[C@@H](CC(N)=O)C(=O)N[C@@H](CCCNC(=N)N)C(=O)O)[C@@H](C)O)C(C)C)C(C)C` [Flu.PB2.90], the half-maximal inhibitory concentration (IC50) in assay [1] (setting [15]) is 93 nM; in [14], 16000 nM. Further, the pIC50 in assay [2] is 5.45.
